Here are results for four compounds from ChEMBL document CHEMBL3044749, “Synthesis, characterization, in vitro hydrolysis and pharmacodynamic profiles of potential novel mutual prodrugs of N-(2,3-xylyl anthranilic acid)” (Med Chem Res, 2013).

What is called half-life is the time in which the quantity being followed falls by half. Higher therefore signals slow loss. For orientation: inhibition in vivo means the share of the control response that was lost under treatment.

Data set [1] is described as follows: Half life in simulated intestinal fluid at 37 degC at pH 7.4 by UV spectrophotometer analysis. Type of data set: ADME.
The nature of data set [2]: Half life in simulated gastrointestinal fluid at 37 degC at pH 1.2 by UV spectrophotometer analysis. It is filed as ADME.
The test system of data set [3] is Mus musculus. The data set is described as follows: Analgesic activity in Swiss Mus musculus (mouse) assessed as inhibition of acetic acid-induced abdominal writhing at 27.65 mg/kg, po administered 1 hr prior to acetic acid injection measured for 10 min. Conditions: Abdomen. It is filed as functional. In general terms: Writhing tests count abdominal constrictions after an irritant is injected.

Data set [4] relates to Rattus norvegicus. Description: Anti-inflammatory activity in Wistar albino Rattus norvegicus (rat) assessed as inhibition of carrageenan-induced paw edema at 27.65 mg/kg, po administered 1 hr prior to carrageenan injection measured after 8 hr by mercury plethysmometer (reference value: 0%). Type of data set: functional. A general note: Carrageenan injected into the paw causes an acute inflammation.

The subject of data set [5] is Rattus norvegicus. The data set is described as follows: Anti-inflammatory activity in Wistar albino Rattus norvegicus (rat) assessed as inhibition of carrageenan-induced paw edema at 27.65 mg/kg, po administered 1 hr prior to carrageenan injection measured after 6 hr by mercury plethysmometer (reference value: 0%). Type of data set: functional.
Data set [6] deals with Rattus norvegicus. Description: Anti-inflammatory activity in Wistar albino Rattus norvegicus (rat) assessed as inhibition of carrageenan-induced paw edema at 27.65 mg/kg, po administered 1 hr prior to carrageenan injection measured after 4 hr by mercury plethysmometer (reference value: 0%). Type of data set: functional.
For data set [7], the system named is Rattus norvegicus. The data set is described as follows: Anti-inflammatory activity in Wistar albino Rattus norvegicus (rat) assessed as inhibition of carrageenan-induced paw edema at 27.65 mg/kg, po administered 1 hr prior to carrageenan injection measured after 3 hr by mercury plethysmometer (reference value: 0%). It is filed as functional.
The test system of data set [8] is Rattus norvegicus. Description: Anti-inflammatory activity in Wistar albino Rattus norvegicus (rat) assessed as inhibition of carrageenan-induced paw edema at 27.65 mg/kg, po administered 1 hr prior to carrageenan injection measured after 2 hr by mercury plethysmometer (reference value: 0%). It is filed as functional.
The test system of data set [9] is Rattus norvegicus. Description: Anti-inflammatory activity in Wistar albino Rattus norvegicus (rat) assessed as inhibition of carrageenan-induced paw edema at 27.65 mg/kg, po administered 1 hr prior to carrageenan injection measured after 1 hr by mercury plethysmometer (reference value: 0%). Type of data set: functional.
Data set [10] in a line: Stability of the compound assessed as prodrug hydrolysis in non-enzymatic simulated gastric fluid at 37 degC at pH 1.2 measured for 2 hr by UV spectrophotometer analysis. Type of data set: physicochemical. Conditions: simulated gi fluid, pH 1.2, 2 h.
The subject of data set [11] is Rattus norvegicus. Description: Gastrointestinal toxicity in Wistar albino Rattus norvegicus (rat) assessed as ulcerogenicity index at 27.65 mg/kg, po administered for 7 days measured on day 8 (reference value: 0 no unit). It is filed as organism-based. Also noted: dose 27.65 mg/kg, route oral. Conditions: in vivo, 168 h.
The test system of data set [12] is Rattus norvegicus. Description: Anti-inflammatory activity in Wistar albino Rattus norvegicus (rat) assessed as inhibition of carrageenan-induced paw edema at 24.65 mg/kg, po administered 1 hr prior to carrageenan injection measured after 1 hr by mercury plethysmometer (reference value: 0%). Type of data set: functional.
Data set [13] deals with Rattus norvegicus. Description: Anti-inflammatory activity in Wistar albino Rattus norvegicus (rat) assessed as inhibition of carrageenan-induced paw edema at 24.65 mg/kg, po administered 1 hr prior to carrageenan injection measured after 3 hr by mercury plethysmometer (reference value: 0%). Type of data set: functional.
Data set [14] deals with Rattus norvegicus. Description: Anti-inflammatory activity in Wistar albino Rattus norvegicus (rat) assessed as inhibition of carrageenan-induced paw edema at 24.65 mg/kg, po administered 1 hr prior to carrageenan injection measured after 2 hr by mercury plethysmometer (reference value: 0%). It is filed as functional.
In data set [15] the test system is Mus musculus. The data set is described as follows: Analgesic activity in Swiss Mus musculus (mouse) assessed as inhibition of acetic acid-induced abdominal writhing at 24.65 mg/kg, po administered 1 hr prior to acetic acid injection measured for 10 min. It is filed as functional. Conditions: Abdomen.
In data set [16] the test system is Rattus norvegicus. Description: Anti-inflammatory activity in Wistar albino Rattus norvegicus (rat) assessed as inhibition of carrageenan-induced paw edema at 24.65 mg/kg, po administered 1 hr prior to carrageenan injection measured after 8 hr by mercury plethysmometer (reference value: 0%). Type of data set: functional.
Data set [17] deals with Rattus norvegicus. The data set is described as follows: Anti-inflammatory activity in Wistar albino Rattus norvegicus (rat) assessed as inhibition of carrageenan-induced paw edema at 24.65 mg/kg, po administered 1 hr prior to carrageenan injection measured after 6 hr by mercury plethysmometer (reference value: 0%). It is filed as functional.
Data set [18] has as its system Rattus norvegicus. The data set is described as follows: Anti-inflammatory activity in Wistar albino Rattus norvegicus (rat) assessed as inhibition of carrageenan-induced paw edema at 24.65 mg/kg, po administered 1 hr prior to carrageenan injection measured after 4 hr by mercury plethysmometer (reference value: 0%). It is filed as functional.
For data set [19], the system named is Rattus norvegicus. Description: Gastrointestinal toxicity in Wistar albino Rattus norvegicus (rat) assessed as ulcerogenicity index at 24.65 mg/kg, po administered for 7 days measured on day 8 (reference value: 0 no unit). It is filed as organism-based. Details: dose 24.65 mg/kg, route oral. Conditions: in vivo, 168 h.
Data set [20] has as its system Rattus norvegicus. The data set is described as follows: Anti-inflammatory activity in Wistar albino Rattus norvegicus (rat) assessed as inhibition of carrageenan-induced paw edema at 23 mg/kg, po administered 1 hr prior to carrageenan injection measured after 8 hr by mercury plethysmometer (reference value: 0%). It is filed as functional.
Data set [21] concerns Rattus norvegicus. The data set is described as follows: Anti-inflammatory activity in Wistar albino Rattus norvegicus (rat) assessed as inhibition of carrageenan-induced paw edema at 23 mg/kg, po administered 1 hr prior to carrageenan injection measured after 6 hr by mercury plethysmometer (reference value: 0%). It is filed as functional.
For data set [22], the system named is Rattus norvegicus. Description: Anti-inflammatory activity in Wistar albino Rattus norvegicus (rat) assessed as inhibition of carrageenan-induced paw edema at 23 mg/kg, po administered 1 hr prior to carrageenan injection measured after 4 hr by mercury plethysmometer (reference value: 0%). It is filed as functional.
Data set [23] relates to Rattus norvegicus. Description: Anti-inflammatory activity in Wistar albino Rattus norvegicus (rat) assessed as inhibition of carrageenan-induced paw edema at 23 mg/kg, po administered 1 hr prior to carrageenan injection measured after 3 hr by mercury plethysmometer (reference value: 0%). Type of data set: functional.
In data set [24] the test system is Rattus norvegicus. Description: Anti-inflammatory activity in Wistar albino Rattus norvegicus (rat) assessed as inhibition of carrageenan-induced paw edema at 23 mg/kg, po administered 1 hr prior to carrageenan injection measured after 2 hr by mercury plethysmometer (reference value: 0%). It is filed as functional.
The subject of data set [25] is Rattus norvegicus. Description: Anti-inflammatory activity in Wistar albino Rattus norvegicus (rat) assessed as inhibition of carrageenan-induced paw edema at 23 mg/kg, po administered 1 hr prior to carrageenan injection measured after 1 hr by mercury plethysmometer (reference value: 0%). It is filed as functional.
Data set [26] has as its system Mus musculus. Description: Analgesic activity in Swiss Mus musculus (mouse) assessed as inhibition of acetic acid-induced abdominal writhing at 23 mg/kg, po administered 1 hr prior to acetic acid injection measured for 10 min. Type of data set: functional. Conditions: Abdomen.
Data set [27] has as its system Rattus norvegicus. The data set is described as follows: Gastrointestinal toxicity in Wistar albino Rattus norvegicus (rat) assessed as ulcerogenicity index at 23 mg/kg, po administered for 7 days measured on day 8 (reference value: 0 no unit). Details: dose 23 mg/kg, route oral. Conditions: in vivo, 168 h. Type of data set: organism-based.
For data set [28], the system named is Rattus norvegicus. Description: Anti-inflammatory activity in Wistar albino Rattus norvegicus (rat) assessed as inhibition of carrageenan-induced paw edema at 13 mg/kg, po administered 1 hr prior to carrageenan injection measured after 4 hr by mercury plethysmometer (reference value: 0%). It is filed as functional.
Data set [29] has as its system Rattus norvegicus. Description: Anti-inflammatory activity in Wistar albino Rattus norvegicus (rat) assessed as inhibition of carrageenan-induced paw edema at 13 mg/kg, po administered 1 hr prior to carrageenan injection measured after 3 hr by mercury plethysmometer (reference value: 0%). Type of data set: functional.
Data set [30] has as its system Rattus norvegicus. Description: Anti-inflammatory activity in Wistar albino Rattus norvegicus (rat) assessed as inhibition of carrageenan-induced paw edema at 13 mg/kg, po administered 1 hr prior to carrageenan injection measured after 2 hr by mercury plethysmometer (reference value: 0%). It is filed as functional.
In data set [31] the test system is Rattus norvegicus. Description: Anti-inflammatory activity in Wistar albino Rattus norvegicus (rat) assessed as inhibition of carrageenan-induced paw edema at 13 mg/kg, po administered 1 hr prior to carrageenan injection measured after 1 hr by mercury plethysmometer (reference value: 0%). Type of data set: functional.
Data set [32] deals with Rattus norvegicus. The data set is described as follows: Anti-inflammatory activity in Wistar albino Rattus norvegicus (rat) assessed as inhibition of carrageenan-induced paw edema at 13 mg/kg, po administered 1 hr prior to carrageenan injection measured after 8 hr by mercury plethysmometer (reference value: 0%). It is filed as functional.
Data set [33] relates to Rattus norvegicus. The data set is described as follows: Anti-inflammatory activity in Wistar albino Rattus norvegicus (rat) assessed as inhibition of carrageenan-induced paw edema at 13 mg/kg, po administered 1 hr prior to carrageenan injection measured after 6 hr by mercury plethysmometer (reference value: 0%). Type of data set: functional.
Data set [34] concerns Mus musculus. Description: Analgesic activity in Swiss Mus musculus (mouse) assessed as inhibition of acetic acid-induced abdominal writhing at 13 mg/kg, po administered 1 hr prior to acetic acid injection measured for 10 min. It is filed as functional. Conditions: Abdomen.
The subject of data set [35] is Rattus norvegicus. The data set is described as follows: Gastrointestinal toxicity in Wistar albino Rattus norvegicus (rat) assessed as ulcerogenicity index at 13 mg/kg, po administered for 7 days measured on day 8 (reference value: 0 no unit). Type of data set: organism-based. Also noted: dose 13 mg/kg, route oral. Conditions: in vivo, 168 h.

In the case of `Cc1cccc(Nc2ccccc2C(=O)NCC(=O)OCc2c(C(C)C)c(=O)n(-c3ccccc3)n2C)c1C`, the results for the half-life in data set [1] and in [2] were 539 min and 1120 min, respectively. In addition, the inhibition in vivo at 27.65 mg/kg in the data set on Mus musculus [3] is 63.9%; in the data set on Rattus norvegicus [4], 10%; in the data set on Rattus norvegicus [5] it was 38.5%; in the data set with Rattus norvegicus [6] it was 83.7%; in the data set on Rattus norvegicus [7] it was 85.7%; with Rattus norvegicus [8], 77.2%. The inhibition in vivo at 27.65 mg/kg in the data set with Rattus norvegicus [9] came to 23.3%. The Stability entry in [10] was “Stable”. Further, in the data set with Rattus norvegicus [11], the UI worked out at 1.
With `Cc1cccc(Nc2ccccc2C(=O)OCc2c(C(C)C)c(=O)n(-c3ccccc3)n2C)c1C`, the half-life in data set [1] is 442 min; in data set [2], 971 min. Further, the inhibition in vivo at 24.65 mg/kg in the data set with Rattus norvegicus [12] is 13.3%; in the data set on Rattus norvegicus [13] it was 71.4%; in the data set on Rattus norvegicus [14] it was 59.1%; in the data set with Mus musculus [15], 81.7%; in the data set with Rattus norvegicus [16], 44%; in the data set with Rattus norvegicus [17], 62.9%. Further, the inhibition in vivo at 24.65 mg/kg in the data set on Rattus norvegicus [18] turned out to be 72.6%. For the same compound, the Stability result in [10] was “Stable”. Also, the UI in the data set with Rattus norvegicus [19] worked out at 0.25.
Take `CC(C)c1c(CO)n(C)n(-c2ccccc2)c1=O` [3-HYDROXYMETHYL PROPYPHENAZONE]: the inhibition in vivo at 23 mg/kg in the data set with Rattus norvegicus [20] was determined as 12%; with Rattus norvegicus [21], 23.7%; with Rattus norvegicus [22] it was 31.2%; in the data set with Rattus norvegicus [23], 40.2%; with Rattus norvegicus [24] it was 46.4%; in the data set on Rattus norvegicus [25] it was 31.5%. In addition, the inhibition in vivo at 23 mg/kg in the data set on Mus musculus [26] was 78.3%. Moreover, in the data set with Rattus norvegicus [27], the UI worked out at 1.25.
With `Cc1cccc(Nc2ccccc2C(=O)O)c1C` [MEFENAMIC ACID], the inhibition in vivo at 13 mg/kg is 35.6% with Rattus norvegicus [28]; 53.1% in the data set with Rattus norvegicus [29]; 52.2% in the data set with Rattus norvegicus [30]; 38.4% in the data set with Rattus norvegicus [31]; 20% in the data set on Rattus norvegicus [32]; 24.3% in the data set with Rattus norvegicus [33]. Also, the inhibition in vivo at 13 mg/kg in the data set with Mus musculus [34] came out at 61.1%. Moreover, in the data set with Rattus norvegicus [35], the UI stood at 3.17.
